Data from the Bradley open melting point set (2014).
Values joined by “and” are separate entries in the source; they are usually repeats but may differ in a detail not shown here. Identical values can stand only once.

CCCCCCCCCCCBr [1-bromoundecane] showed a melting point of -9 °C.
With CCCCS [1-butanethiol] the melting point was -116 °C.
C=CCC [1-butene] gave a melting point of -185 °C.
In the case of Clc1ccccc1I [1-chloro-2-iodobenzene], the melting point is reported as 1 °C.
With O=[N+]([O-])c1ccc(Cl)cc1[N+](=O)[O-] [1-chloro-3,4-dinitrobenzene] the melting point was 23 °C.
With O=[N+]([O-])c1cccc(Cl)c1 [1-chloro-3-nitrobenzene] the melting point was 45 °C.
With Clc1cccc2cc3ccccc3cc12 [1-chloroanthracene] the melting point was 77 °C.
Clc1cccc2ccccc12 [1-chloronaphthalene] showed a melting point of -20 °C.
CCCCCCCCCCl [1-chlorononane] gave a melting point of -39 °C.
Work on CCCCCCCCCCS [1-decanethiol] yielded a melting point of -26 °C.
Compound C=CCCCCCCCC [1-decene] [listing 1 of 2 here] has a melting point of -66.1 °C.
C=CCCCCCCCC [1-decene] [listing 2 of 2 here] gave a melting point of -66 °C.
With CN(C)/C=C/[N+](=O)[O-] [1-dimethylamino-2-nitroethylene] the melting point was 103 °C.
With CC(O)CN(C)C (stereo unspecified) [1-dimethylamino-2-propanol] the melting point was -85 °C.
C#CCCCCCCCCCC [1-dodecyne] showed a melting point of -19 °C.
CCC1(O)CCC(c2ccccc2)c2ccccc21 (stereo unspecified) [1-ethyl-4-phenyl-1,2,3,4-tetrahydronaphthalen-1-ol] gave a melting point of 112 °C.
Work on C#CC1(O)CCCCC1 [1-ethynyl-1-cyclohexanol] yielded a melting point of 33 °C.
In the case of O=[N+]([O-])c1cccc(F)c1 [1-fluoro-3-nitrobenzene], the melting point is reported as 2 °C.
In the case of CCCCCCCO [1-heptanol], the melting point is reported as -34 °C (2×) and -33.2 °C.
Compound C#CCCCCC [1-heptyne] has a melting point of -81 °C.
CCCCCCCCCCCCCCCCS [1-hexadecanethiol] gave a melting point of 21 °C.
Compound C#CCCCCCCCCCCCCCC [1-hexadecyne] has a melting point of 15 °C.
CCCCCCN [1-hexylamine] gave a melting point of -19 °C.
O=[N+]([O-])c1ccccc1I [1-iodo-2-nitrobenzene] gave a melting point of 50 °C.
Compound O=[N+]([O-])c1cccc(I)c1 [1-iodo-3-nitrobenzene] has a melting point of 38 °C.
O=[N+]([O-])c1ccc(I)cc1 [1-iodo-4-nitrobenzene] gave a melting point of 175 °C.
Work on CCCCI [1-iodobutane] yielded a melting point of -103 °C.
In the case of CCCCCCCCCCI [1-iododecane], the melting point is reported as -16 °C.
With CCCCCCCCCCCCI [1-iodododecane] the melting point was 0 °C.
CCCCCCCI [1-iodoheptane] gave a melting point of -48 °C.
Compound CCCCCI [1-iodopentane] has a melting point of -86 °C.
CCCI [1-iodopropane] gave a melting point of -101 °C.
With Cc1ccccc1-c1ccccc1 [1-methyl-2-phenylbenzene] the melting point was 0 °C.
Cc1cccc(-c2ccccc2)c1 [1-methyl-3-phenylbenzene] gave a melting point of 5 °C.
For Cc1ccc(C(C)C)cc1 [1-methyl-4-isopropylbenzene], the melting point was -68 °C.
Cc1ccc(C(C)(C)C)cc1 [1-methyl-4-tert-butylbenzene] gave a melting point of -53 °C.
CC1(C(=O)O)CCCCC1 [1-methylcyclohexanecarboxylic acid] showed a melting point of 38 °C.
CC1(O)CCCCC1 [1-methylcyclohexanol] gave a melting point of 26 °C.
For CC1(O)CCCC1 [1-methylcyclopentanol] [listing 1 of 2 here], the melting point was 37 °C.
Work on CC1(O)CCCC1 [1-methylcyclopentanol] [listing 2 of 2 here] yielded a melting point of 37 °C.
For CC1=CCCC1 [1-methylcyclopentene], the melting point was -142 °C.
With Cn1cnc(C(=O)O)c1 [1-methylimidazole-4-carboxylic acid] the melting point was 242 °C.
With CCCCc1ccc(C#Cc2ccc(CCCC)cc2)cc1 [1-n-butyl-4-[(4-butylphenyl)ethynyl]benzene] the melting point was 41 °C.
In the case of O=Cc1cccc2ccccc12 [1-naphthaldehyde], the melting point is reported as 2 °C.
In the case of Oc1cccc2ccccc12 [1-naphthol], the melting point is reported as 96 °C.
For NC(=O)Cc1cccc2ccccc12 [1-naphthylacetamide], the melting point was 177 °C.
For CCCCCCCCCCCCCCCCCCO [1-octadecanol], the melting point was 61 °C.
Work on C#CCCCCCCCCCCCCCCCC [1-octadecyne] yielded a melting point of 27 °C.
For C=CCCCCCC [1-octene], the melting point was -102 °C.
Compound CCCCCO [1-pentanol] has a melting point of -78 °C.
Work on CCCC=CB(O)O [1-pentenylboronic acid] yielded a melting point of 80 °C.
CC(=O)OC1=CC(c2ccccc2)c2ccccc21 (stereo unspecified) [1-phenyl-1H-inden-3-yl acetate] showed a melting point of 56 °C.
In the case of NC(=O)NNc1ccccc1 [1-phenylsemicarbazide], the melting point is reported as 172 °C.
Work on CCCS [1-propanethiol] yielded a melting point of -113 °C.
For CCCN [1-propylamine], the melting point was -83 °C.
O=C(O)CCCc1ccc2ccc3cccc4ccc1c2c34 [1-pyrenebutyric acid] gave a melting point of 185 °C.
Cc1ccc(C(C)(C)C)cc1 [1-tert-Butyl-4-methylbenzene] gave a melting point of -52 °C.
CC(=O)OC[C@H]1O[C@@H](S)[C@H](OC(C)=O)[C@@H](OC(C)=O)[C@@H]1OC(C)=O [1-thio-beta-D-glucose tetraacetate] showed a melting point of 116 °C.
C=CCCCCCCCCC [1-undecene] showed a melting point of -49 °C.
For COC(=O)c1cc(C)[nH]n1 [1H-pyrazole-3-carboxylic acid, 5-methyl-, methyl ester], the melting point was 107 °C.
For Cc1cc(CO)nn1C [1H-pyrazole-3-methanol, 1,5-dimethyl-], the melting point was 41 °C.
c1c[nH]nn1 [1h-1,2,3-triazole] showed a melting point of 24 °C.
O=c1c(O)c(-c2ccccc2O)oc2ccccc12 [2',3-dihydroxyflavone] showed a melting point of 203 °C.
Compound CC(=O)Nc1ccc(F)cc1F [2',4'-difluoroacetanilide] has a melting point of 122 °C.
With COc1cccc(OC)c1C(C)=O [2',6'-dimethoxyacetophenone] the melting point was 70 °C.
Work on CC(=O)Nc1ccccc1S(C)(=O)=O [2'-(methylsulfonyl)acetanilide] yielded a melting point of 145 °C.
With O=C(/C=C/c1ccccc1)c1ccccc1O [2'-hydroxychalcone] the melting point was 90 °C.
For CC(=O)Nc1ccccc1C(C)C [2'-isopropylacetanilide], the melting point was 73 °C.
For OCCOCCOCCO [2,2'-[Ethane-1,2-diylbis(oxy)]diethanol], the melting point was -4 °C.
Oc1ccc(Cl)cc1Cc1cc(Cl)ccc1O [2,2'-methylenebis(4-chlorophenol)] gave a melting point of 174 °C.
For c1ccc(-c2cccc(-c3ccccn3)n2)nc1 [2,2':6',2''-terpyridine], the melting point was 91 °C.
In the case of OCC(F)(F)F [2,2,2-Trifluoroethanol], the melting point is reported as -43.5 °C.
In the case of NC(=O)C(F)(F)F [2,2,2-trifluoroacetamide], the melting point is reported as 73 °C.
Work on CC(C)(C)C(N)=S [2,2,2-trimethylthioacetamide] yielded a melting point of 115 °C.
In the case of OCC(F)(F)C(F)(F)CO [2,2,3,3-tetrafluoro-1,4-butanediol], the melting point is reported as 84 °C.
CC(C)CC(C)(C)C [2,2,4-Trimethylpentane] gave a melting point of -107 °C.
With CC(C)C(O)C(C)(C)CO (stereo unspecified) [2,2,4-trimethyl-1,3-pentanediol] the melting point was 52 °C.
CC(C)CC(C)(C)C [2,2,4-trimethylpentane] showed a melting point of -107 °C.
CC1(C)CCCC(C)(C)N1 [2,2,6,6-tetramethylpiperidine] gave a melting point of -59 °C.
With COC(F)(F)C(Cl)Cl [2,2-Dichloro-1,1-difluoroethyl methyl ether] the melting point was -35 °C.
CCC(C)(C)C [2,2-Dimethylbutane] showed a melting point of -100 °C.
